# pIC50: −log10 of the molar value. Entries after “also recorded” stand apart in the source; their conditions may differ. Like-named read-outs stand apart in the source and are kept apart here.
# Tests used:
# rat microglia [1] = experiment: binding of Aβ-coupled microspheres to microglia; conditions: 4 hours at 37° C. (72 h in FIG. 23)
# [2] = test system: scavenger receptor II mRNA / microglia; experiment: microsphere implants in brain neocortex: reactive microglia and scavenger receptor mRNA; type: in vivo
# From the text: FIGS. 7A, B, and C show SpheresAβ1-42 in vivo. […]. […] Microglia were visualized by uptake of fluorescent labeled acetylated LDL, DiI-ac-LDL Bar=40 μm, FIG. 7A; 25 μm FIG. 7B and C.
# [3] = test system: rat microglia / hippocampal neurons; conditions: for induction of neurotoxic microglia / neuron killing: rat microglia, mostly 1 μmole/l; for killing of neurons: rat, hippocampal neurons, 72 h, 1 µM; for neuron loss with conditioned media from microglia: 10% vol/vol conditioned media, microglia with 1 μmole/l peptide
# [4] = test system: NTox released by Aβ1-42-stimulated microglia (neuron killing); experiment: cells; type: cell-based, rat; conditions: 72 hours; FIG. 30 experiment
# human microglia [5] = experiment: induction of neuron-killing human microglia; type: cell-based; conditions: 1 μmole/liter synthetic peptides
# rat microglia [6] = type: binding; conditions: 6 hours, 37° C.
# Description: Synthetic Aβ peptides were linked to Sepharose beads (Pharmacia) in coupling buffer (0.1 M NaHCO3, 0.5 M NaCl, pH 8.3) containing 20% DMSO. This solution was combined with an appropriate volume of CNBr-activated Sepharose 4B (10 mg protein per ml of bead; Pharmacia protocol) and mixed overnight on a platform mixer at room temperature. Remaining active groups on the beads were blocked by 1.0 M glycine and excess uncoupled peptides removed from this bead-peptide complex by washing with three cycles of alternating pH (0.1 M acetate buffer, pH 4.0, followed by 0.1 M Tris-HCL buffer, pH 8.0, each buffer containing 0.5 M NaCl). Coupled beads (10^4 per ml) were placed in 35 mm culture dishes covered with 250,000 adhering microglia at 37° C. in 1.5 ml N2 medium in accordance with the procedure of Giulian et al., 1995a. The numbers of microglia which detached from the plate and bound to coupled beads were determined at the end of a 6 hour incubation period by inverted phase microscopy with 100 beads scored from each of three sister cultures. Glycine and bovine serum albumin (BSA) coupled beads were used as controls.
# [7] = test system: reactive microglia in rat neocortex; experiment: brain inflammatory response after infusion into neocortex of adult rat; type: in vivo; conditions: 0.5 nmoles Aβ1-42, co-infusion of 1.0 nmole peptide; 5 days
# human microglia [8] = experiment: nitrite/nitrate production, human microglia; type: cell-based
# Description: Nitrites and nitrates, stable byproducts of nitric oxide synthetase (NOS) served as markers for nitric oxide (NO) synthesis (Ignarro, 1990). […]; for 24 to 72 hours incubated in the presence of neuritic/core plaques or Aβ peptides) were measured by the Griess method set forth by Beckman et al., 1990 against a standard curve ranging from 0.1 to 50.0 μM nitrate.
# [9] = type: physicochemical; conditions: chemically defined culture media, 37° C.; Table 2
# From the text: Solubility of peptides is described for chemicallydefined culture media a […]
# rat microglia [10] = experiment: microglial morphology / reactivity; type: cell-based
# Description: Equal amounts of plaque protein (normalized to total amine content at 400 μmoles/l) were added to neuronal cultures in the presence (100,000 cells per culture) or absence of rat microglia. […] The chromatogram was developed with 80% glass distilled formic acid at a flow rate of 0.3 ml per minute and monitored at 280 nm.
# Bright field photomicrographs of rat microglia cultures exposed to peak S1 (FIG. 20A) or peak S5 (FIG. 20B) and immuno-stained for the presence of Aβ.
# FIGS. 22A-F depict cellular responses upon exposure to synthetic Aβ peptides. […] Bar=25 microns.
# microglia = experiment: inhibition of SpheresAβ1-42 binding to microglia; design: species or system rat; conditions: 10 μmoles/l, 4 hours, 37° C.
# [11] = test system: Aβ1-42-stimulated microglia; type: cell-based, rat; conditions: for blocking of Aβ1-42 induced microglial neurotoxicity by peptides: 10 μmoles/liter peptide, 1 μmole/liter Aβ1-42
# In short: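 E18 rat hippocampal cultures, microglia depleted with saporin–ac-LDL (10 μg/ml, 12 h) on day 14, then given test substances at 10μM with or without exogenous microglia (100,000 cells) for 72 h. Neurons immunostained (NF plus MAP-2) and nuclei counted by fluorescence microscopy; survival expressed as % of parallel untreated controls.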
# [12] = test system: plaque-stimulated microglia; experiment: blocking of plaque-induced microglial neurotoxicity; type: cell-based, rat; conditions: FIG. 16C
# macrophages = experiment: competition with microspheres coupled to Aβ1-42, macrophages; type: binding; conditions: 4 hours at 37° C.
# kidney cells = experiment: competition with microspheres coupled to Aβ1-42, kidney cells; type: binding; conditions: 4 hours at 37° C.
# astroglia = type: cell-based, rat; conditions: 100 μmoles/l
# From the text: FIGS. 21A-D display toxic actions of synthetic Aβ peptides upon neurons. […]. There is, however, a generalized cytotoxic action by Aβ25-35 at>30 μmoles/l on both neurons (FIG. 21A) and astroglia (FIG. 21B). In the absence of microglia, none of the Aβ peptides (at 1 μmole/l) produce destruction of neurons. […] These observations point to the need to deplete neuron cultures of microglia when assessing mechanisms of Aβ toxicity. […]; FIG. 21E).
# . Briefly, hippocampal cells obtained from embryonic stage 18 rat fetuses were dispersed mechanically in the presence of 0.125% trypsin and plated onto poly-L-lysine coated glass coverslips in 24 well plates at 250,000 cells per well (resulting in adhering cell densities of about 1250 cells per mm^2) in chemically-defined N2 culture media containing 5% fetal bovine serum. Gradual reduction of serum began on day 10 in vitro with daily 1:1 volume replacements with chemically-defined media, until a final concentration of 0.6% serum was achieved. […]
# On day 14 of culture, immediately following saporin treatment, test substances were added to the hippocampal cultures. […] Immuno-labeled cells per field and nuclei per field were scored at 200X magnification using fluorescence microscopy. Data were expressed as % mean survival expressed in terms of parallel untreated control cultures after scoring at least 20 randomly selected fields for each of 3 coverslips.
# hippocampal neurons = type: cell-based, rat; conditions: 100 μmoles/l
# NTox = experiment: protection of neurons against isolated NTox applied directly; type: cell-based
# From the text: FIG. 32 is a graph showing the specificity of tyramine compounds to NTox. […].
# Initial studies to characterize the neuroprotective effect of tyramine compounds employed microglia-neuron co-culture assays in the presence of Aβ or isolated senile plaques. Inhibition of neuron killing in […]--inhibition of microglial activation by Aβ or plaques; inhibition of NTox production and release by microglia; or inhibition of action of NTox upon neurons. […] Effective doses in the low nmolar range show the tyramine compounds to be very potent agents compared with low μmolar range of other neuroprotective drugs under development for neurological disorders.
# quinolinic acid (QUIN) = experiment: protection of neurons against quinolinic acid; type: cell-based; conditions: QUIN (100 μM in FIG. 13)
# From the text: (§1) FIG. 32 is a graph showing the specificity of tyramine compounds to NTox. […]
# AMAA = experiment: protection of neurons against AMAA; type: cell-based; conditions: FIG. 32
# From the text: as §1
# NMDA receptor = experiment: whole cell current elicited by NMDA in Xenopus oocytes injected with NMDA R1 and R2 subunit cRNAs; type: cell-based; conditions: FIG. 34
# From the text: FIG. 34 is a graph shorting the % maximal current peak elicited by NMDA, octopamine and tyramine compounds in the presence of a given NMDA concentration. […].
# The precise mechanism of NTox that leads to the destruction of neurons is only partially characterized. Based upon extensive testing with receptor antagonists, it has been discovered that two classes of neurotransmitter receptors are involved--the n-methyl D-aspartate (NMDA) class of […] receptors and the Muscarinic (M receptors) class of cholinergic receptors. […] […]. Further study to determine if tyramine compounds act upon the NMDA receptor itself involved expression of the NMDA receptor complex in Xenopus oocytes and measurement of ionic fluxes across the oocyte membrane that are elicited by NMDA. […] […]. […] Thus, tyramine compounds appear to have several actions, one of which is upon the NMDA receptor.
# [13] = test system: human microglia stimulated with S5; type: cell-based;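 further: drugs applied at 10 µM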
molecule,measurement,setting,value
SpheresAβ1-42: Aβ1-42 coupled to (fluorescent) microspheres,binding of peptide-coupled microspheres to microglia,rat microglia [1],rapidly engulfed by cultured microglia
same,binding of peptide-coupled microspheres to microglia,rat microglia [1]; listed as Aβ1-42-spheres,localized specifically within DiI-ac-LDL(+) microglia
same,binding of peptide-coupled microspheres to microglia,rat microglia [1]; listed as Aβ1-42 coupled-microspheres,readily taken up by microglia
same,increase in scavenger receptor mRNA vs undamaged tissue or SphereBSA,[2]; two weeks after implantation,5 fold
same,reactive microglia around implanted spheres,[2]; weeks after implantation,chronically stimulate the presence of reactive cells
same,induction of neurotoxic microglia / neuron killing,[3],induced neuron killing
same,killing of neurons,[3],70-80%
Aβ1-42: synthetic human β-amyloid peptide 1-42,neurons destroyed by Aβ-stimulated microglia,[4],about 65%
same,induction of neurotoxic human microglia,human microglia [5],very potent inducers of neurotoxic human microglia; also recorded: stimulated release of neurotoxin from human microglia
same,binding of peptide-coupled microspheres to microglia,rat microglia [1],marked glial binding; also recorded: readily bind; also recorded: readily engulfed by microglia
same,microglial adherence to coupled Sepharose beads,rat microglia [6],anchored to beads; also recorded: provided an anchoring site for microglia
same,local brain inflammatory response,[7],produces an inflammatory response
same,"release of nitrate or nitrite, human microglia",human microglia [8],did not bring about release of nitrate or nitrites
same,Solubility,[9],very insoluble
same,microglial morphology / reactivity,rat microglia [10],morphological changes with retraction of processes
same,"neuron killing, microglia separated from neurons (no contact)",[3],stimulated microglia to destroy neurons
same,neuron killing,"[3]; 100 nmoles/liter, rat microglia 500 cells per mm^2",destroyed nearly all neurons
same,neuron loss with conditioned media from microglia,[3],Significant neuron loss occurred
same,neuron kill,"[3]; ""aged"" Aβ1-42",77.5%±2.6%
same,neuron kill,[3]; fresh Aβ1-42,75.1%±5.8%
same,induction of neurotoxic microglia / neuron killing,[3]; listed as 1-42,induced toxic effects
same,killing of neurons,[3],70-80%
"Aβ10-16: Aβ peptide residues 10-16 (YEVHHQK; Amyloid-beta protein 42; UniProt P05067 681-687, looked up, fragment)",binding of peptide-coupled microspheres to microglia,rat microglia [1],readily bind; also recorded: able to bind to microglia
same,inhibition of SpheresAβ1-42 binding by peptides,microglia,effectively prevented
same,blocking of Aβ1-42 induced microglial neurotoxicity by peptides,[11],blocked neurotoxin production
same,pIC50,"[11]; read-out: ED50 (blocking of Aβ1-42 induced neurotoxicity), FIG. 16B",~7.52
same,blocking of plaque-induced microglial toxicity by peptides,[12],blocked plaque-induced toxicity in vitro
same,"competition with Aβ1-42 microspheres, macrophages",macrophages,competition occurs with the macrophages in a dose dependent manner
same,"competition with Aβ1-42 microspheres, kidney cells",kidney cells,no changes in binding
"Aβ17-43: Aβ peptide residues 17-43 (LVFFAEDVGSNKGAIIGLMVGGVVIAT; Amyloid-beta protein 42; UniProt P05067 688-714, looked up, fragment)",induction of neurotoxic human microglia,human microglia [5],inactive
same,inhibition of SpheresAβ1-42 binding by peptides,microglia,did not
same,blocking of Aβ1-42 induced microglial neurotoxicity by peptides,[11],did not
same,microglial morphology / reactivity,rat microglia [10],does not alter microglial morphology
same,neuron loss with conditioned media from microglia,[3],undamaged
"Aβ25-35: Aβ peptide residues 25-35 (GSNKGAIIGLM; Amyloid-beta protein 42; UniProt P05067 696-706, looked up, fragment)",destruction of glia,astroglia,~90%
same,binding of peptide-coupled microspheres to microglia,rat microglia [1],little cell binding
same,destruction of neurons,hippocampal neurons,~90%
same,Solubility,[9],soluble
NC(CCCP(=O)(O)O)C(=O)O (stereo not drawn) [AP5],"neuroprotective effects against NTox, concentration range",NTox,~100 nM
same,inhibition of killing action of NTox applied to neurons,"NTox; isolated NTox, FIGS. 13, 32",NTox can be blocked
same,protection against quinolinic acid,quinolinic acid (QUIN),prevented from killing neurons
same,protection against AMAA,AMAA,prevented from killing neurons
same,effect on current elicited by NMDA,NMDA receptor,could be blocked
same,"drug blockade of neuron killing, rat microglia",[11],prevented neuronal loss; also recorded: prevented neuron death
same,"drug blockade of neuron killing, human microglia",[13],prevented neuron death

# Reference: patent US6043283A, “Tyramine compounds and their neuronal effects” (priority 1997, dated 2000)
